Several values for one entry are separate records, joined by “and”; a condition that tells them apart may be missing. Identical values can stand only once. Toxic doses and inconclusive results are not listed. Rule for the calls: active = survival T/C of 150% or more; inactive = T/C below 125% in these data.
System: P388 leukemia ip, CD2F1 mice, survival T/C
Assay: NCI In Vivo Anticancer Drug Screen. Data for tumor model P388 Leukemia (intraperitoneal) in CD2F1 (CDF1) mice
Settings: endpoint: median survival time, higher = longer survival
Summary of the method: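 Mice carrying the transplanted tumor received test compound or vehicle. Survival was recorded in each group, and the value is the treated-group measurement divided by that of the vehicle-treated control group.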

[1] = dose: 100.0 mg/kg/injection, schedule: Q04DX002 (ip), vehicle: saline with Tween-80
[2] = dose: 200.0 mg/kg/injection, schedule: Q04DX002 (ip), vehicle: saline with Tween-80
[3] = dose: 100.0 mg/kg/injection, schedule: Q01DX009 (ip), vehicle: saline with Tween-80
[4] = dose: 200.0 mg/kg/injection, schedule: Q01DX009 (ip), vehicle: saline with Tween-80
[5] = dose: 50.0 mg/kg/injection, schedule: Q01DX009 (ip), vehicle: saline with Tween-80
[6] = dose: 60.0 mg/kg/injection, schedule: Q01DX005 (ip), vehicle: saline with Tween-80
[7] = dose: 120.0 mg/kg/injection, schedule: Q01DX005 (ip), vehicle: saline with Tween-80
[8] = dose: 50.0 mg/kg/injection, schedule: Q01DX005 (ip), vehicle: saline with Tween-80
[9] = dose: 100.0 mg/kg/injection, schedule: Q01DX005 (ip), vehicle: saline with Tween-80
[10] = dose: 200.0 mg/kg/injection, schedule: Q01DX005 (ip), vehicle: saline with Tween-80
[11] = dose: 1.56 mg/kg/injection, schedule: Q01DX009 (ip), vehicle: saline
[12] = dose: 12.5 mg/kg/injection, schedule: Q01DX009 (ip), vehicle: saline
[13] = dose: 50.0 mg/kg/injection, schedule: Q01DX009 (ip), vehicle: saline
[14] = dose: 60.0 mg/kg/injection, schedule: Q01DX005 (ip), vehicle: saline
[15] = dose: 120.0 mg/kg/injection, schedule: Q01DX005 (ip), vehicle: saline
[16] = dose: 240.0 mg/kg/injection, schedule: Q01DX005 (ip), vehicle: saline

Measured: T/C

O=C1C=CC2(C=C1)CCN(C(=O)C(F)(F)F)Cc1cc3c(cc12)OCO3
inactive: [1] 97 % of control | [2] 91 % of control | dose: 400.0 mg/kg/injection, schedule: Q04DX002 (ip), vehicle: saline with Tween-80 93 % of control

CCC(C)(C)C(=O)O
inactive: [3] 100 % of control | [4] 100 % of control

CCCOC(=O)C(F)C(Br)C(=O)OCCC (stereo unspecified)
inactive: dose: 25.0 mg/kg/injection, schedule: Q01DX009 (ip), vehicle: saline with Tween-80 100 % of control and 107 % of control | [5] 105 % of control and 120 % of control | [3] 111 % of control and 118 % of control | [4] 123 % of control

O=C(O)CSc1ccc([N+](=O)[O-])cc1[N+](=O)[O-]
inactive: dose: 60.0 mg/kg/injection, schedule: Q01DX005 (ip), vehicle: Klucel (hydroxypropylcellulose) (HPC) 107 % of control | [6] 96 % of control | dose: 120.0 mg/kg/injection, schedule: Q01DX005 (ip), vehicle: Klucel (hydroxypropylcellulose) (HPC) 103 % of control | [7] 86 % of control | dose: 240.0 mg/kg/injection, schedule: Q01DX005 (ip), vehicle: Klucel (hydroxypropylcellulose) (HPC) 109 % of control | dose: 240.0 mg/kg/injection, schedule: Q01DX005 (ip), vehicle: saline with Tween-80 95 % of control

C=CCSc1nc2ccc(NC(=O)CCC(=O)O)cc2s1
inactive: dose: 50.0 mg/kg/injection, schedule: Q01DX009 (ip), vehicle: Klucel (hydroxypropylcellulose) (HPC) 103 % of control | dose: 100.0 mg/kg/injection, schedule: Q01DX009 (ip), vehicle: Klucel (hydroxypropylcellulose) (HPC) 111 % of control | dose: 200.0 mg/kg/injection, schedule: Q01DX009 (ip), vehicle: Klucel (hydroxypropylcellulose) (HPC) 93 % of control

COc1ccc2nc3ccccc3c(NCCCCCCCCNc3c4ccccc4nc4ccc(OC)cc34)c2c1
inactive: dose: 0.63 mg/kg/injection, schedule: Q01DX009 (ip), vehicle: other 113 % of control | dose: 1.25 mg/kg/injection, schedule: Q01DX009 (ip), vehicle: other 109 % of control | dose: 2.5 mg/kg/injection, schedule: Q01DX009 (ip), vehicle: other 104 % of control | dose: 3.75 mg/kg/injection, schedule: Q01DX009 (ip), vehicle: other 109 % of control | dose: 5.0 mg/kg/injection, schedule: Q01DX009 (ip), vehicle: other 113 % of control | dose: 7.5 mg/kg/injection, schedule: Q01DX009 (ip), vehicle: other 120 % of control

C=C(C)CN(CCC#N)CC(=C)C
inactive: [8] 102 % of control | [9] 105 % of control | [10] 101 % of control

CN(C)Cc1cccc(CN(C)C)[c]1[Sn]([Br])([c]1ccccc1)[c]1ccccc1
inactive: [11] 104 % of control | dose: 3.12 mg/kg/injection, schedule: Q01DX009 (ip), vehicle: saline 106 % of control | [12] 120 % of control

Clc1ccccc1CSCc1c(CSCc2ccccc2Cl)c(CSCc2ccccc2Cl)c(CSCc2ccccc2Cl)c(CSCc2ccccc2Cl)c1CSCc1ccccc1Cl
inactive: [5] 102 % of control | [3] 100 % of control | [4] 100 % of control

Cc1cc(=O)oc2c3c(c4c(c12)OC(C)(C)C=C4)OC(C)(C)C=C3
inactive: [6] 89 % of control | [7] 88 % of control

CCC[As](CCC)SC1CC(OC(=O)c2ccccc2)C(OC(=O)c2ccccc2)C(COC(=O)c2ccccc2)O1 (stereo unspecified)
inactive: dose: 50.0 mg/kg/injection, schedule: Q01DX009 (ip), vehicle: saline + alcohol 100 % of control | dose: 100.0 mg/kg/injection, schedule: Q01DX009 (ip), vehicle: saline + alcohol 102 % of control | dose: 200.0 mg/kg/injection, schedule: Q01DX009 (ip), vehicle: saline + alcohol 102 % of control

CCC(=N\N=C(N)N)/C(CC)=N/N=C(N)N
inactive: [6] 101 % of control | [7] 97 % of control

Oc1c(Cl)cc(Cl)cc1CN1CCOCC1
inactive: dose: 50.0 mg/kg/injection, schedule: Q01DX009 (ip), vehicle: suspension in saline 89 % of control | dose: 100.0 mg/kg/injection, schedule: Q01DX009 (ip), vehicle: suspension in saline 87 % of control | dose: 200.0 mg/kg/injection, schedule: Q01DX009 (ip), vehicle: suspension in saline 98 % of control | dose: 400.0 mg/kg/injection, schedule: Q01DX009 (ip), vehicle: suspension in saline 109 % of control

N#CC(=C1SCS1)[N+](=O)[O-]
inactive: [11] 121 % of control | dose: 3.13 mg/kg/injection, schedule: Q01DX009 (ip), vehicle: saline with Tween-80 121 % of control

CC(C)OC(=O)c1ccc(=O)oc1
inactive: dose: 100.0 mg/kg/injection, schedule: Q04DX003 (ip), vehicle: Klucel (hydroxypropylcellulose) (HPC) 105 % of control | dose: 200.0 mg/kg/injection, schedule: Q04DX003 (ip), vehicle: Klucel (hydroxypropylcellulose) (HPC) 99 % of control | dose: 400.0 mg/kg/injection, schedule: Q04DX003 (ip), vehicle: Klucel (hydroxypropylcellulose) (HPC) 110 % of control

C=CCC(NC(=O)CC)C(=O)O (stereo unspecified)
inactive: [13] 92 % of control | dose: 100.0 mg/kg/injection, schedule: Q01DX009 (ip), vehicle: saline 92 % of control | dose: 200.0 mg/kg/injection, schedule: Q01DX009 (ip), vehicle: saline 103 % of control

O=C(O)c1cc2ccccc2c(Br)c1O.O=[N+]([O-])C1CCC(O)C2[N-]CCCC21.[Cu+]
inactive: dose: 6.25 mg/kg/injection, schedule: Q01DX005 (ip), vehicle: saline with Tween-80 97 % of control | dose: 12.5 mg/kg/injection, schedule: Q01DX005 (ip), vehicle: saline with Tween-80 100 % of control and 106 % of control | dose: 25.0 mg/kg/injection, schedule: Q01DX005 (ip), vehicle: saline with Tween-80 106 % of control and 98 % of control

CCOC(=O)/C(C#N)=C1/SC=C(N)N1c1ccccc1
inactive: dose: 50.0 mg/kg/injection, schedule: Q01DX005 (ip), vehicle: Klucel (hydroxypropylcellulose) (HPC) 98 % of control | dose: 100.0 mg/kg/injection, schedule: Q01DX005 (ip), vehicle: Klucel (hydroxypropylcellulose) (HPC) 94 % of control | dose: 200.0 mg/kg/injection, schedule: Q01DX005 (ip), vehicle: Klucel (hydroxypropylcellulose) (HPC) 91 % of control

FC(F)(F)C1(C(F)(F)F)N=CC=CN1
inactive: dose: 50.0 mg/kg/injection, schedule: Q01DX009 (ip), vehicle: distilled water + alcohol 101 % of control | dose: 100.0 mg/kg/injection, schedule: Q01DX009 (ip), vehicle: distilled water + alcohol 95 % of control

COc1nc(NC2OCC(O)C(O)C2O)c(C=O)c(=O)n1C (stereo unspecified)
inactive: [14] 100 % of control | [15] 90 % of control | [16] 90 % of control

COC(=O)C1(C)CCCC2(C)c3cc(O)c(C(C)C)cc3CCC12 (stereo unspecified)
inactive: dose: 100.0 mg/kg/injection, schedule: Q01DX001 (ip), vehicle: Klucel (hydroxypropylcellulose) (HPC) 94 % of control | dose: 200.0 mg/kg/injection, schedule: Q01DX001 (ip), vehicle: Klucel (hydroxypropylcellulose) (HPC) 94 % of control | dose: 400.0 mg/kg/injection, schedule: Q01DX001 (ip), vehicle: Klucel (hydroxypropylcellulose) (HPC) 100 % of control

O=C1C[C@@H](c2ccccc2)NCCCCN(O)CCCN1
inactive: dose: 25.0 mg/kg/injection, schedule: Q01DX005 (ip), vehicle: saline 106 % of control | dose: 50.0 mg/kg/injection, schedule: Q01DX005 (ip), vehicle: saline 97 % of control | dose: 100.0 mg/kg/injection, schedule: Q01DX005 (ip), vehicle: saline 100 % of control

O=c1[nH]c2n[nH]c(=S)n2c2c1CCC2
inactive: dose: 50.0 mg/kg/injection, schedule: Q04DX002 (ip), vehicle: saline with Tween-80 99 % of control | [1] 97 % of control | [2] 99 % of control

CCOc1c(N=Nc2ccc(OC)cc2)c(-c2ccccc2)nn1C(=S)S
inactive: [8] 102 % of control | [9] 103 % of control | [10] 102 % of control

O=C1OC(=O)C2CCC12 (stereo unspecified)
inactive: [5] 106 % of control | [14] 93 % of control | [3] 106 % of control | [15] 89 % of control | [4] 97 % of control | [16] 86 % of control

CC(C)(C)N=C(CCN1CCN(c2ccccc2)CC1)Nc1c(Cl)cccc1Cl
inactive: [12] 91 % of control | dose: 25.0 mg/kg/injection, schedule: Q01DX009 (ip), vehicle: saline 97 % of control | [5] 94 % of control | [13] 100 % of control | [3] 96 % of control

— PubChem BioAssay AID330 (DTP/NCI, 2004)
